Data reported in patent publication US9707233B2, “Heterocyclylamines as PI3K inhibitors” (Incyte Corporation, priority 2011, dated 2017).
Counter-ions that a name gives are not always drawn.

Molecular target: PI3Kδ (p110δ/p85α) (Homo sapiens (Human), UniProt O00329)
Test: PI3Kδ scintillation proximity assay (Example A3)
Type: biochemical
Details: 20 μM ATP, 20 μM PIP2, 4 nM PI3Kδ; read-out: PI3Kδ SPA IC50
In short: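 IC50 derived by fitting percent control activity against log inhibitor concentration. Radiolabelled product was measured by scintillation counting on WGA SPA beads after overnight shaking. The kinase reaction used 4 nM p110δ/p85α, 20 μM ATP (with [γ-33P]ATP) and 20 μM PIP2 at pH 6.7 and room temperature, with 0.5% DMSO final.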

Chain of PI3Kδ (p110δ/p85α) (O00329 whole entry): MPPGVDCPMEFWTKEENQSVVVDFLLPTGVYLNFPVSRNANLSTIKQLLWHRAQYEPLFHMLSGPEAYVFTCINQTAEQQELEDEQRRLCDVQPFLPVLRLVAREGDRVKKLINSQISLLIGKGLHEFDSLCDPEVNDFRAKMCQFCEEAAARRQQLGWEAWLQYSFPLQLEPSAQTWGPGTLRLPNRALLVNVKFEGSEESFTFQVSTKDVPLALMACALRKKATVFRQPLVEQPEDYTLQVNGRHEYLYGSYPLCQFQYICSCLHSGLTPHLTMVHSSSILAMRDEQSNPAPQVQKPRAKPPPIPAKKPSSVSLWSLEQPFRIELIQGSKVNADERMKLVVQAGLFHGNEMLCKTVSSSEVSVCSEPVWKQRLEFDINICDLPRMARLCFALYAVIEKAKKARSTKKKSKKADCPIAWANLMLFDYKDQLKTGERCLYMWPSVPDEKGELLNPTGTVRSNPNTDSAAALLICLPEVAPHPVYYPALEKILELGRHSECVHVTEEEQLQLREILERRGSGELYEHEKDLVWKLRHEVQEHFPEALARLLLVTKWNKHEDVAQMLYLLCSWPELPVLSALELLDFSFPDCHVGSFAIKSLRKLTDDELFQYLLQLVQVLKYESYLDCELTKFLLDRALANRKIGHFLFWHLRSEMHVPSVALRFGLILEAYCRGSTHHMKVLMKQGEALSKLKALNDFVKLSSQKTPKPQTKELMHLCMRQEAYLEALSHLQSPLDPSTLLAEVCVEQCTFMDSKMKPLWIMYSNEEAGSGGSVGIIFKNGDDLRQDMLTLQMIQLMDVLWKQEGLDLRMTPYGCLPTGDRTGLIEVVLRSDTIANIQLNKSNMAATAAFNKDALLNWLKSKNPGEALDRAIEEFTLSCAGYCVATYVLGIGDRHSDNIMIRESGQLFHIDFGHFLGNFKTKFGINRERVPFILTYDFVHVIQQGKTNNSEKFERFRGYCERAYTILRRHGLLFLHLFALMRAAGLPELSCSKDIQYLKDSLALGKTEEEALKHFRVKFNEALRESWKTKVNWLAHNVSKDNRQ
Chain of PI3Kδ (p110δ/p85α) (P27986 whole entry partner): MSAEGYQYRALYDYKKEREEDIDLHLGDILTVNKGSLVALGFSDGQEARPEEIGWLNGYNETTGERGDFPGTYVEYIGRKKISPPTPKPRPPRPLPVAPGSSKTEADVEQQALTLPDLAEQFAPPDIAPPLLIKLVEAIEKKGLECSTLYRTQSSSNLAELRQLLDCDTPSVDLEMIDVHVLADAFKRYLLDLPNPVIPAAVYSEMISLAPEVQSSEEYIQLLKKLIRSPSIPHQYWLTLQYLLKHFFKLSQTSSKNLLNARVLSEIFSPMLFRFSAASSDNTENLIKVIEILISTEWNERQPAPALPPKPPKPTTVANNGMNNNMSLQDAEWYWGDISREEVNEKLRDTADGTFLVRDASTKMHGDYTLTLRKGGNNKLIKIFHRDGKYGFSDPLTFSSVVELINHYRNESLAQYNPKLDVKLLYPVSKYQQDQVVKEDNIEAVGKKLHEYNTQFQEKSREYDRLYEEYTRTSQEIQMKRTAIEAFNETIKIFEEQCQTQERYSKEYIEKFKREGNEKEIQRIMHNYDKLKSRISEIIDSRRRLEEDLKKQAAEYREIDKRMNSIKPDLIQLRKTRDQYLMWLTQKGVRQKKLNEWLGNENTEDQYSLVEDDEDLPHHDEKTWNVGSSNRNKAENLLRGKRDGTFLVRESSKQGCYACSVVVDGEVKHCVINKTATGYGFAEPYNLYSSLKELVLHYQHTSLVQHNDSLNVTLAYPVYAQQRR

Row | IC50 [nM] | Compound
1 | > 500 | CCOc1c(C(C)n2nc(C)c3c(N)ncnc32)cc(Cl)c(C#N)c1C1CNC(=O)C1 (single isomer, unassigned) [Example 350, 4-[1-(4-amino-3-methyl-1H-pyrazolo[3,4-d]pyrimidin-1-yl)ethyl]-6-chloro-3-ethoxy-2-(5-oxopyrrolidin-3-yl)benzonitrile]
2 | ≤ 10 | CCOc1c(C(C)n2nc(C)c3c(N)ncnc32)cc(Cl)c(C#N)c1C1CNC(=O)C1 (single isomer, unassigned) [Example 352, 4-[1-(4-amino-3-methyl-1H-pyrazolo[3,4-d]pyrimidin-1-yl)ethyl]-6-chloro-3-ethoxy-2-(5-oxopyrrolidin-3-yl)benzonitrile]
3 | 50 to 200 | CCOc1c(C(C)n2nc(C)c3c(N)ncnc32)cc(Cl)c(F)c1C1CNC(=O)O1 (single isomer, unassigned) [Example 355, 5-{3-[1-(4-amino-3-methyl-1H-pyrazolo[3,4-d]pyrimidin-1-yl)ethyl]-5-chloro-2-ethoxy-6-fluorophenyl}-1,3-oxazolidin-2-one]
4 | 50 to 200 | CCOc1c(C(C)n2nc(C)c3c(N)ncnc32)cc(Cl)c(F)c1C1CNC(=O)O1 (single isomer, unassigned) [Example 356, 5-{3-[1-(4-amino-3-methyl-1H-pyrazolo[3,4-d]pyrimidin-1-yl)ethyl]-5-chloro-2-ethoxy-6-fluorophenyl}-1,3-oxazolidin-2-one]
5 | > 500 | CCOc1c(C(C)n2nc(C)c3c(N)ncnc32)cc(Cl)c(F)c1C1CNC(=O)O1 (single isomer, unassigned) [Example 358, 5-{3-[1-(4-amino-3-methyl-1H-pyrazolo[3,4-d]pyrimidin-1-yl)ethyl]-5-chloro-2-ethoxy-6-fluorophenyl}-1,3-oxazolidin-2-one]
6 | ≤ 10 | CCOc1c(C(C)n2nc(-c3ccn(C)n3)c3c(N)ncnc32)cc(Cl)c(C)c1-c1ccc(C(=O)N(C)C)nc1 (centres unmarked) [Example 50, 5-(3-{1-[4-amino-3-(1-methyl-1H-pyrazol-3-yl)-1H-pyrazolo[3,4-d]pyrimidin-1-yl]ethyl}-5-chloro-2-ethoxy-6-methylphenyl)-N,N-dimethylpyridine-2-carboxamide bis(trifluoroacetate)]
7 | ≤ 10 | CCOc1c(C(C)n2nc(C)c3c(N)ncnc32)cc(Cl)c(F)c1C1CN(CCO)C1 (centres unmarked) [Example 144, 2-(3-{3-[1-(4-Amino-3-methyl-1H-pyrazolo[3,4-d]pyrimidin-1-yl)ethyl]-5-chloro-2-ethoxy-6-fluorophenyl}azetidin-1-yl)ethanol]
8 | ≤ 10 | COc1c(C(C)n2nc(C)c3c(N)ncnc32)cc(Cl)c(C)c1-c1cncc(C(=O)N2CC(C#N)C2)c1 (centres unmarked) [Example 177, 1-[(5-{3-[1-(4-amino-3-methyl-1H-pyrazolo[3,4-d]pyrimidin-1-yl)ethyl]-5-chloro-2-methoxy-6-methylphenyl}pyridin-3-yl)carbonyl]azetidine-3-carbonitrile]
9 | ≤ 10 | CCOc1c(C(C)n2nc(C)c3c(N)ncnc32)cc(Cl)c(C)c1-c1cncc(C(=O)N(C)C)c1 (centres unmarked) [Example 196, 5-(3-(1-(4-amino-3-methyl-1H-pyrazolo[3,4-d]pyrimidin-1-yl)ethyl)-5-chloro-2-ethoxy-6-methylphenyl)-N,N-dimethylnicotinamide]
10 | ≤ 10 | CCOc1c(C(C)n2nc(C)c3c(N)ncnc32)cc(Cl)c(C)c1-c1cncc(S(C)(=O)=O)c1 (centres unmarked) [Example 198, 1-(1-(5-chloro-2-ethoxy-4-methyl-3-(5-(methylsulfonyl)pyridin-3-yl)phenyl)ethyl)-3-methyl-1H-pyrazolo[3,4-d]pyrimidin-4-amine]
11 | ≤ 10 | CCOc1c(C(C)n2nc(C)c3c(N)ncnc32)cc(Cl)c(C#N)c1C1CN(S(C)(=O)=O)C1 (centres unmarked) [Example 248, 4-[1-(4-Amino-3-methyl-1H-pyrazolo[3,4-d]pyrimidin-1-yl)ethyl]-6-chloro-3-ethoxy-2-[1-(methylsulfonyl)azetidin-3-yl]benzonitrile]
12 | ≤ 10 | CCOc1c(C(C)n2nc(C)c3c(N)ncnc32)cc(Cl)c(C#N)c1C1CN(C(=O)NC)C1 (centres unmarked) [Example 257, 3-{3-[1-(4-Amino-3-methyl-1H-pyrazolo[3,4-d]pyrimidin-1-yl)ethyl]-5-chloro-6-cyano-2-ethoxyphenyl}-N-methylazetidine-1-carboxamide]
13 | ≤ 10 | COc1c(C(C)n2nc(C)c3c(N)ncnc32)cc(Cl)c(C#N)c1C1CN(C(C)C)C1 (centres unmarked) [Example 264, 4-[1-(4-Amino-3-methyl-1H-pyrazolo[3,4-d]pyrimidin-1-yl)ethyl]-6-chloro-2-(1-isopropylazetidin-3-yl)-3-methoxybenzonitrile]

The next lines start with the compound.

Row | Compound | IC50 [nM]
14 | CCOc1c(C(C)n2nc(C)c3c(N)ncnc32)cc(Cl)c(C#N)c1C1CNC(=O)C1 (single isomer, unassigned) [Example 351, 4-[1-(4-amino-3-methyl-1H-pyrazolo[3,4-d]pyrimidin-1-yl)ethyl]-6-chloro-3-ethoxy-2-(5-oxopyrrolidin-3-yl)benzonitrile] | 50 to 200
15 | CCOc1c(C(C)n2nc(C)c3c(N)ncnc32)cc(Cl)c(F)c1C1COC(=O)N1 (single isomer, unassigned) [Example 354, 4-{3-[1-(4-amino-3-methyl-1H-pyrazolo[3,4-d]pyrimidin-1-yl)ethyl]-5-chloro-2-ethoxy-6-fluorophenyl}-1,3-oxazolidin-2-one] | ≤ 10
16 | CCOc1c(C(C)n2nc(C)c3c(N)ncnc32)cc(C)c(C#N)c1C1CN(CC(C)O)C1 (stereo in doubt) [Example 326, 4-[1-(4-amino-3-methyl-1H-pyrazolo[3,4-d]pyrimidin-1-yl)ethyl]-3-ethoxy-2-{1-[(2S)-2-hydroxypropyl]azetidin-3-yl}-6-methylbenzonitrile] | ≤ 10
17 | CCOc1c(C(C)n2nc(C)c3c(N)ncnc32)cc(Cl)c(C#N)c1C1CNC(=O)O1 (stereo not drawn) [323 (2nd peak), 4-[1-(4-amino-3-methyl-1H-pyrazolo[3,4-d]pyrimidin-1-yl)ethyl]-6-chloro-3-ethoxy-2-(2-oxo-1,3-oxazolidin-5-yl)benzonitrile] | ≤ 10
18 | COc1c(C(C)n2nc(C(F)F)c3c(N)ncnc32)cc(Cl)c(F)c1C1CN(C)C1 (centres unmarked) [Example 75, 1-{1-[5-Chloro-4-fluoro-2-methoxy-3-(1-methylazetidin-3-yl)phenyl]ethyl}-3-(difluoromethyl)-1H-pyrazolo[3,4-d]pyrimidin-4-amine] | ≤ 10
19 | COc1c(C(C)n2nc(C)c3c(N)ncnc32)cc(Cl)c(C)c1C1CN(CC(N)=O)C1 (centres unmarked) [Example 111, 2-(3-{3-[1-(4-Amino-3-methyl-1H-pyrazolo[3,4-d]pyrimidin-1-yl)ethyl]-5-chloro-2-methoxy-6-methylphenyl}azetidin-1-yl)acetamide] | ≤ 10
20 | COc1c(C(C)n2nc(C)c3c(N)ncnc32)cc(Cl)c(C)c1C1CN(C(=O)[C@@H](C)O)C1 (stereo partly drawn) [Example 121, (2R)-1-(3-{3-[1-(4-Amino-3-methyl-1H-pyrazolo[3,4-d]pyrimidin-1-yl)ethyl]-5-chloro-2-methoxy-6-methylphenyl}azetidin-1-yl)-1-oxopropan-2-ol trifluoroacetate] | ≤ 10
21 | CCOc1c(C(C)n2nc(C)c3c(N)ncnc32)cc(Cl)c(F)c1C1CN(CC(N)=O)C1 (centres unmarked) [Example 148, 2-(3-{3-[1-(4-Amino-3-methyl-1H-pyrazolo[3,4-d]pyrimidin-1-yl)ethyl]-5-chloro-2-ethoxy-6-fluorophenyl}azetidin-1-yl)acetamide] | ≤ 10
22 | CCOc1c(C(C)n2nc(C)c3c(N)ncnc32)cc(Cl)c(C#N)c1C1CN(CC)C1 (centres unmarked) [Example 214, 4-[1-(4-Amino-3-methyl-1H-pyrazolo[3,4-d]pyrimidin-1-yl)ethyl]-6-chloro-3-ethoxy-2-(1-ethylazetidin-3-yl)benzonitrile] | ≤ 10
23 | CCOc1c(C(C)n2nc(C)c3c(N)ncnc32)cc(Cl)c(C#N)c1C1CN(C(C)C)C1 (centres unmarked) [Example 215, 4-[1-(4-Amino-3-methyl-1H-pyrazolo[3,4-d]pyrimidin-1-yl)ethyl]-6-chloro-3-ethoxy-2-(1-isopropylazetidin-3-yl)benzonitrile] | ≤ 10
24 | CCOc1c(C(C)n2nc(C)c3c(N)ncnc32)cc(Cl)c(C#N)c1C1CN(CC(C)(C)O)C1 (centres unmarked) [Example 222, 4-[1-(4-Amino-3-methyl-1H-pyrazolo[3,4-d]pyrimidin-1-yl)ethyl]-6-chloro-3-ethoxy-2-[1-(2-hydroxy-2-methylpropyl)azetidin-3-yl]benzonitrile] | ≤ 10
25 | CCOc1c(C(C)n2nc(C)c3c(N)ncnc32)cc(Cl)c(C#N)c1C1CN(CCOC)C1 (centres unmarked) [Example 225, 4-[1-(4-Amino-3-methyl-1H-pyrazolo[3,4-d]pyrimidin-1-yl)ethyl]-6-chloro-3-ethoxy-2-[1-(2-methoxyethyl)azetidin-3-yl]benzonitrile] | ≤ 10
26 | COc1c(C(C)n2nc(C)c3c(N)ncnc32)cc(Cl)c(C#N)c1C1CN(CC(C)(C)O)C1 (centres unmarked) [Example 271, 4-[1-(4-Amino-3-methyl-1H-pyrazolo[3,4-d]pyrimidin-1-yl)ethyl]-6-chloro-2-[1-(2-hydroxy-2-methylpropyl)azetidin-3-yl]-3-methoxybenzonitrile] | ≤ 10
